Experimental data: article PMC7162492, “Pharmacological and pharmacokinetic profile of the novel ocular hypotensive prodrug CKLP1 in Dutch-belted pigmented rabbits” (PLoS ONE, 2020)
Where “and” joins values, the source holds several entries; their conditions need not be identical. Equal values may be shown once. Entries after “also recorded” stand apart in the source; their conditions may differ.

Experiments:
[1] = test system: IOP in Dutch-belted pigmented rabbits; test: IOP measurement by rebound tonometer during 90 days of topical CKLP1; assay type: in vivo
Description: (§1) All experiments with animals were pre-approved by the Institutional Animal Care and Use Committee of the Mayo Clinic, Rochester, MN and adhered to the recommendations in the Guide for the Care and use of Laboratory Animals of the National Institutes of Health, and the tenets of the ARVO Statement for the Use of Animals in Vision Research. Female Dutch-belted pigmented rabbits (age 7 months) were obtained from Covance Research Products, Inc. (Denver, PA). Rabbits were housed in pairs and kept in a climate controlled room with 12 h light and dark cycles. Animals had unrestrained access to water and standard rabbit food pellets at all times. Upon receipt, animals were acclimated for at least 5 days before initiation of the experiment. IOP was measured with a handheld rebound tonometer (Icare Tonovet, Colonial Medical Supply, Franconia, NH, USA) in conscious and minimally restrained, non-anesthetized rabbits as previously described. Briefly, daily IOP was calculated from the average of 3 independent IOP measurements at 3 different time points each day. These time points corresponded to 1 h, 4 h and 23 h post treatment on any given day. Rabbits that needed to be handled for IOP were subjected to sham IOP measurements for two days prior to initiation of experiment. Rabbits (n = 3) were injected intravenously through the right ear vein with CKLP1 as a bolus dose equal to 0.25 mg/kg body weight. Additional rabbits were treated topically through instillation of 50 μl eye drops of a 10 mM (4.1 mg/ml) solution of CKLP1 in sterile PBS. Topical CKLP1 application was continued once daily (9:30 am every day) for either 1 (n = 3), 4 (n = 3), 8 (n = 3) or 90 days (n = 6). In the 1, 4 and 8 day groups, drug was added to both eyes, whereas in the 90 day group, CKLP1 was added to one eye while the contralateral eye received vehicle (PBS, Corning, Manassas, VA).
IOP values are represented as mean ± standard deviation. IOP differences between treated and control eyes were compared using two-tailed paired Student’s t-test. Pharmacokinetic parameters (Cmax, Tmax, AUC and concentration of CKLP1 and levcromakalim) across various days following treatment were compared with one-way ANOVA. Criterion for statistically significant difference of means was set at p<0.05. Statistical analyses were performed using Microsoft Excel and its data analysis add-on feature.

[2] = parameters: method as in earlier work; conditions: ref Roy Chowdhury U, Viker KB, Stoltz KL, et al. J Med Chem. 2016;59(13):6221-31; cited from earlier work
[3] = test system: Dutch-belted pigmented rabbits; test: Histology of tissues at necropsy after 90 days of topical CKLP1; assay type: in vivo; conditions: topical CKLP1 once daily, masked veterinary pathologist
Description: All experiments with animals were pre-approved by the Institutional Animal Care and Use Committee of the Mayo Clinic, Rochester, MN and adhered to the recommendations in the Guide for the Care and use of Laboratory Animals of the National Institutes of Health, and the tenets of the ARVO Statement for the Use of Animals in Vision Research. Female Dutch-belted pigmented rabbits (age 7 months) were obtained from Covance Research Products, Inc. (Denver, PA). Rabbits were housed in pairs and kept in a climate controlled room with 12 h light and dark cycles. Animals had unrestrained access to water and standard rabbit food pellets at all times. Upon receipt, animals were acclimated for at least 5 days before initiation of the experiment. IOP was measured with a handheld rebound tonometer (Icare Tonovet, Colonial Medical Supply, Franconia, NH, USA) in conscious and minimally restrained, non-anesthetized rabbits as previously described. Briefly, daily IOP was calculated from the average of 3 independent IOP measurements at 3 different time points each day. […]
To assess cell and tissue morphology following CKLP1 treatment for 90 days, necropsy was performed on all 6 treated rabbits. Representative hematoxylin and eosin stained sections from 34 tissues were isolated, processed and assessed in a masked manner by a certified veterinary pathologist. […]

[4] = Concentration in aqueous and vitreous humor after topical CKLP1 for 1, 4 or 8 days (LC-MS/MS); assay type: in vivo, Dutch-belted pigmented rabbits; conditions: topical CKLP1 both eyes, days 1, 4 and 8, collected after the 24 h blood sample
Description: LC-MS/MS analysis of all fluids were performed using a Waters (Milford, MA) Acquity UPLC BEH C18 column (1.7 μm, 2.1 x 50 mm) with an Agilent EC-C18 pre-column (2.7 μm, 2.1 x 5 mm) and a gradient elution program containing ultra-pure water and acetonitrile with 2.5 mM ammonium formate, at a flow rate of 0.2 ml/min. Flavopiridol was used as an internal standard. The column and auto-sampler temperatures were maintained at 40°C and 4°C, respectively. Source parameters were capillary voltage, 2.6 kV; source temperature, 150°C; desolvation temperature, 500°C; cone gas flow, 150 L/h; and desolvation gas flow, 800 L/h. The cone voltages and collision energies for CKLP1, levcromakalim and flavopiridol were determined by MassLynx-Intellistart software, v4.1, and were 32, 34 and 72 V (cone) and 20, 14 and 30 eV (collision), respectively. The retention times were 4.5 minutes for CKLP1, 5.9 minutes for levcromakalim and 5.7 minutes for flavopiridol.
To validate accurate measurement of CKLP1 and levcromakalim, known concentrations of CKLP1 (5, 10, 25, 50, 100, 250, 500 ng/ml) and levcromakalim (1, 5, 10, 25, 50, 100, 250 ng/ml) were added to human plasma (obtained from the Mayo Clinic Division of Transfusion Medicine under an Institutional Review Board approved protocol) to make calibration curves. Quality control was determined for each run by using known quantities of CKLP1 and levcromakalim to verify that the instrument recorded values consistent with the established standard curve. The effect of carryover was evaluated by injecting blank samples before and after running the standard samples for calibration curves. Unknown samples with signal to noise ratios >10 were recorded as acceptable concentrations. Samples with signal to noise ratios <10 were reported as not detectable (ND). Controls consisted of a double blank (without analytes and internal standard) and a single blank (only internal standard). The linearity of the calibration curves was determined by plotting the ratios of analytes to internal standard peak areas. The curve was fitted by least squares regression with a 1/x weighting for both CKLP1 and levcromakalim. Data was collected from 3–6.4 minutes for CKLP1 and 4–8 minutes for both levcromakalim and flavopiridol. Waters MassLynx Intellistart software v4.1 was used for analysis.
as §1, with “Topical CKLP1 application was continued once daily (9:30 am every day) for either 1 (n = 3), 4 (n = 3), 8 (n = 3) or 90 days (n = 6). In the 1, 4 and 8 day groups, drug was added to both eyes, whereas in the 90 day group, CKLP1 was added to one eye while the contralateral eye received vehicle (PBS, Corning, Manassas, VA).” left out

[5] = 10 mM CKLP1 eye drop daily, 90 days

Substance: sodium [CKLP1, sodium [(3S,4R)-6-cyano-2,2-dimethyl-4-(2-oxopyrrolidin-1-yl)-chroman-3-yl phosphate]]
- IOP drop in the treated eye compared to baseline [1, 5]: 11.4 ± 4.7% and 11.4%
- IOP reduction in treated eye compared to contralateral vehicle treated eye [1, 5]: 14.1 ± 1.0%
- IOP absolute change in treated eyes compared to control eyes ([1]; 10 mM CKLP1 eye drop daily, 90 days, n = 6): 2.4 ± 0.4 mmHg
- IOP in the treated eye ([1]; 10 mM CKLP1 eye drop daily, 90 days, baseline 16.5 ± 0.7): 14.6 ± 1.0 mm Hg
- Average IOP in treated eyes post treatment (washout group) ([1]; after cessation of 90-day treatment, n = 3, baseline 16.5 ± 0.7): 15.6 ± 0.6 mm Hg
- Solubility in water [2]: water soluble
- Histological changes in tissues [3]: No observable histological changes; also recorded: did not show any observable histological changes; also recorded: No observable differences in histology
- Concentration in aqueous humor [4]: No CKLP1 was detected; also recorded: below detectable limits
- Concentration in vitreous humor [4]: No CKLP1 was detected; also recorded: below detectable limits
